Results as given in patent publication US10745396B2, “Pesticidally active polycyclic derivatives with sulfur containing substituents” (Syngenta Participations AG, priority 2015, dated 2020).

How the values were obtained:
Type in all cases: in vivo
[1] = system: Euschistus heros (Neotropical Brown Stink Bug); assay: Euschistus heros, soybean leaves on agar, N2 nymphs; conditions: 120 h, application rate of 200 ppm, 5 days after infestation, read-out: effect in at least one of the two categories (mortality or growth inhibition)
Method: Example B3: Euschistus heros (Neotropical Brown Stink Bug)
Soybean leaves on agar in 24-well microtiter plates were sprayed with aqueous test solutions prepared from 10′000 ppm DMSO stock solutions. After drying the leaves were infested with N2 nymphs. The samples were assessed for mortality and growth inhibition in comparison to untreated samples 5 days after infestation.

[2] = system: Diabrotica balteata (Corn Root Worm); assay: Diabrotica balteata, maize sprouts on agar, L2 larvae; conditions: 96 h, application rate of 200 ppm, 4 days after infestation, read-out: effect in at least one of the two categories (mortality or growth inhibition)
Method: Example B2: Diabrotica balteata (Corn Root Worm)
Maize sprouts placed onto an agar layer in 24-well microtiter plates were treated with aqueous test solutions prepared from 10′000 ppm DMSO stock solutions by spraying. After drying, the plates were infested with L2 larvae (6 to 10 per well). The samples were assessed for mortality and growth inhibition in comparison to untreated samples 4 days after infestation.

[3] = system: Plutella xylostella (Diamond Back Moth); assay: Plutella xylostella, artificial diet, L2 larvae; conditions: 120 h, application rate of 200 ppm, 5 days after infestation, read-out: effect in at least one of the two categories (mortality or growth inhibition)
Method: Example B7: Plutella xylostella (Diamond Back Moth)
24-well microtiter plates with artificial diet were treated with aqueous test solutions prepared from 10′000 ppm DMSO stock solutions by pipetting. After drying, the plates were infested with L2 larvae (10 to 15 per well). The samples were assessed for mortality and growth inhibition in comparison to untreated samples 5 days after infestation.

[4] = system: Spodoptera littoralis (Egyptian Cotton Leaf Worm); assay: Spodoptera littoralis, cotton leaf discs, L1 larvae; conditions: foliar, 72 h, application rate of 200 ppm, 3 days after infestation
Method: Example B8: Spodoptera littoralis (Egyptian Cotton Leaf Worm)
Cotton leaf discs were placed onto agar in 24-well microtiter plates and sprayed with aqueous test solutions prepared from 10′000 ppm DMSO stock solutions. After drying the leaf discs were infested with five L1 larvae. The samples were assessed for mortality, anti-feeding effect, and growth inhibition in comparison to untreated samples 3 days after infestation. Control of Spodoptera littoralis by a test sample is given when at least one of the categories mortality, anti-feedant effect, and growth inhibition is higher than the untreated sample.

[5] = system: Myzus persicae (Green Peach Aphid); assay: Myzus persicae feeding/contact activity, sunflower leaf discs; conditions: foliar, 144 h, application rate of 200 ppm, 6 days after infestation
Method: Example B5: Myzus persicae (Green Peach Aphid): Feeding/Contact Activity
Sunflower leaf discs were placed onto agar in a 24-well microtiter plate and sprayed with aqueous test solutions prepared from 10′000 ppm DMSO stock solutions. After drying, the leaf discs were infested with an aphid population of mixed ages. The samples were assessed for mortality 6 days after infestation.

[6] = system: Spodoptera littoralis (Egyptian Cotton Leaf Worm); assay: Spodoptera littoralis, uptake by lettuce roots from agar, eggs; conditions: 144 h, test rate of 12.5 ppm, 6 days after infestation, read-out: effect in at least one of the three categories (mortality, anti-feeding, or growth inhibition)
Source text: Example B9: Spodoptera littoralis (Egyptian Cotton Leaf Worm)
Test compounds were applied by pipette from 10′000 ppm DMSO stock solutions into 24-well plates and mixed with agar. Lettuce seeds were placed onto the agar and the multi well plate was closed by another plate which contained also agar. After 7 days the compound was absorbed by the roots and the lettuce grew into the lid plate. The lettuce leaves were then cut off into the lid plate. Spodoptera eggs were pipetted through a plastic stencil onto a humid gel blotting paper and the lid plate was closed with it. The samples were assessed for mortality, anti-feedant effect and growth inhibition in comparison to untreated samples 6 days after infestation.

CCn1c(C(F)(F)F)cc2nc(-c3nc(-c4ccc(C(F)(F)F)cc4)ccc3S(=O)(=O)CC)n(C)c2c1=O [Compound P2, 5-ethyl-2-[3-ethylsulfonyl-6-[4-(trifluoromethyl)phenyl]-2-pyridyl]-3-methyl-6-(trifluoromethyl)imidazo[4,5-c]pyridin-4-one]
≥ 80%: percent effect (mortality or growth inhibition) at 200 ppm [1] | percent effect (mortality or growth inhibition) at 200 ppm [2] | percent effect (mortality or growth inhibition) at 200 ppm [3] | percent control (mortality, anti-feedant effect or growth inhibition) at 200 ppm [4]

CCS(=O)(=O)c1ccc(-n2cc(Cl)cn2)nc1-c1nc2cc(C(F)(F)F)n(C)c(=O)c2n1C [Compound P7, 2-[6-(4-chloropyrazol-1-yl)-3-ethylsulfonyl-2-pyridyl]-3,5-dimethyl-6-(trifluoromethyl)imidazo[4,5-c]pyridin-4-one]
≥ 80%: percent control (mortality, anti-feedant effect or growth inhibition) at 200 ppm [4]

CCS(=O)(=O)c1ccc(-n2cc(C(F)(F)F)cn2)nc1-c1nc2cc(C(F)(F)F)n(C)c(=O)c2n1C [Compound P9]
≥ 80%: percent effect (mortality or growth inhibition) at 200 ppm [1] | percent effect (mortality or growth inhibition) at 200 ppm [2] | percent effect (mortality or growth inhibition) at 200 ppm [3] | percent control (mortality, anti-feedant effect or growth inhibition) at 200 ppm [4]

CCn1c(C(F)(F)F)cc2nc(-c3nc(-c4ccc(Cl)c(Cl)c4)ccc3S(=O)(=O)CC)n(C)c2c1=O [Compound P10]
≥ 80%: percent effect (mortality or growth inhibition) at 200 ppm [2] | percent effect (mortality or growth inhibition) at 200 ppm [3] | percent control (mortality, anti-feedant effect or growth inhibition) at 200 ppm [4]

CCn1c(C(F)(F)F)cc2nc(-c3nc(-c4cc(F)cc(F)c4)ccc3S(=O)(=O)CC)n(C)c2c1=O [Compound P12]
≥ 80%: percent effect (mortality or growth inhibition) at 200 ppm [1] | percent effect (mortality or growth inhibition) at 200 ppm [2] | percent effect (mortality or growth inhibition) at 200 ppm [3] | mortality at 200 ppm [5] | percent effect (mortality, anti-feeding or growth inhibition) at 12.5 ppm [6] | percent control (mortality, anti-feedant effect or growth inhibition) at 200 ppm [4]

CCn1c(C(F)(F)F)cc2nc(-c3nc(-c4ccc(C#N)cc4)ccc3S(=O)(=O)CC)n(C)c2c1=O [Compound P15]
≥ 80%: percent effect (mortality or growth inhibition) at 200 ppm [1] | percent effect (mortality or growth inhibition) at 200 ppm [2] | percent effect (mortality or growth inhibition) at 200 ppm [3] | percent effect (mortality, anti-feeding or growth inhibition) at 12.5 ppm [6] | percent control (mortality, anti-feedant effect or growth inhibition) at 200 ppm [4]

CCn1c(C(F)(F)F)cc2nc(-c3nc(-c4cccc(Cl)c4)ccc3S(=O)(=O)CC)n(C)c2c1=O [Compound P17]
≥ 80%: percent effect (mortality or growth inhibition) at 200 ppm [1] | percent effect (mortality or growth inhibition) at 200 ppm [2] | percent effect (mortality or growth inhibition) at 200 ppm [3] | mortality at 200 ppm [5] | percent control (mortality, anti-feedant effect or growth inhibition) at 200 ppm [4]

CCn1c(C(F)(F)F)cc2nc(-c3nc(-c4cc(F)cc(Cl)c4)ccc3S(=O)(=O)CC)n(C)c2c1=O [Compound P19]
≥ 80%: percent effect (mortality or growth inhibition) at 200 ppm [2] | percent effect (mortality or growth inhibition) at 200 ppm [3] | percent control (mortality, anti-feedant effect or growth inhibition) at 200 ppm [4]

CCn1c(C(F)(F)F)cc2nc(-c3nc(-c4ccc(OC(F)(F)F)cc4)ccc3S(=O)(=O)CC)n(C)c2c1=O [Compound P22]
≥ 80%: percent effect (mortality or growth inhibition) at 200 ppm [1] | percent effect (mortality or growth inhibition) at 200 ppm [2] | percent effect (mortality or growth inhibition) at 200 ppm [3] | percent effect (mortality, anti-feeding or growth inhibition) at 12.5 ppm [6] | percent control (mortality, anti-feedant effect or growth inhibition) at 200 ppm [4]

CCn1c(C(F)(F)F)cc2nc(-c3nc(-c4ccc(OC)c(F)c4)ccc3S(=O)(=O)CC)n(C)c2c1=O [Compound P23]
≥ 80%: percent effect (mortality or growth inhibition) at 200 ppm [1] | percent effect (mortality or growth inhibition) at 200 ppm [2] | percent effect (mortality or growth inhibition) at 200 ppm [3] | mortality at 200 ppm [5] | percent control (mortality, anti-feedant effect or growth inhibition) at 200 ppm [4]

CCn1c(C(F)(F)F)cc2nc(-c3nc(-c4ccc(Cl)c(C)c4)ccc3S(=O)(=O)CC)n(C)c2c1=O [Compound P24]
≥ 80%: percent effect (mortality or growth inhibition) at 200 ppm [2] | percent effect (mortality or growth inhibition) at 200 ppm [3] | percent control (mortality, anti-feedant effect or growth inhibition) at 200 ppm [4]

C/C=C/c1ccc(S(=O)(=O)CC)c(-c2nc3cc(C(F)(F)F)n(CC)c(=O)c3n2C)n1 [Compound P25]
≥ 80%: percent effect (mortality or growth inhibition) at 200 ppm [2] | mortality at 200 ppm [5] | percent control (mortality, anti-feedant effect or growth inhibition) at 200 ppm [4]

CCn1c(C(F)(F)F)cc2nc(-c3nc(-c4ccc(F)cc4)ccc3S(=O)(=O)CC)n(C)c2c1=O [Compound P26]
≥ 80%: percent effect (mortality or growth inhibition) at 200 ppm [3] | percent control (mortality, anti-feedant effect or growth inhibition) at 200 ppm [4]

CCn1c(C(F)(F)F)cc2nc(-c3nc(-c4ccsc4)ccc3S(=O)(=O)CC)n(C)c2c1=O [Compound P27]
≥ 80%: percent control (mortality, anti-feedant effect or growth inhibition) at 200 ppm [4]

CCn1c(C(F)(F)F)cc2nc(-c3nc(-c4cccnc4)ccc3S(=O)(=O)CC)n(C)c2c1=O [Compound P30]
≥ 80%: percent effect (mortality or growth inhibition) at 200 ppm [1] | percent effect (mortality or growth inhibition) at 200 ppm [2] | percent effect (mortality or growth inhibition) at 200 ppm [3] | mortality at 200 ppm [5] | percent control (mortality, anti-feedant effect or growth inhibition) at 200 ppm [4]

CCn1c(C(F)(F)F)cc2nc(-c3nc(-c4cncs4)ccc3S(=O)(=O)CC)n(C)c2c1=O [Compound P31]
≥ 80%: percent effect (mortality or growth inhibition) at 200 ppm [2] | percent effect (mortality or growth inhibition) at 200 ppm [3] | mortality at 200 ppm [5] | percent control (mortality, anti-feedant effect or growth inhibition) at 200 ppm [4]

CCn1c(C(F)(F)F)cc2nc(-c3nc(-c4ccc(Cl)cc4Cl)ccc3S(=O)(=O)CC)n(C)c2c1=O [Compound P32]
≥ 80%: percent effect (mortality or growth inhibition) at 200 ppm [2] | percent effect (mortality or growth inhibition) at 200 ppm [3] | percent control (mortality, anti-feedant effect or growth inhibition) at 200 ppm [4]

CCn1c(C(F)(F)F)cc2nc(-c3nc(-c4ccc(C(F)(F)F)cc4F)ccc3S(=O)(=O)CC)n(C)c2c1=O [Compound P33]
≥ 80%: percent effect (mortality or growth inhibition) at 200 ppm [2] | percent effect (mortality or growth inhibition) at 200 ppm [3] | percent control (mortality, anti-feedant effect or growth inhibition) at 200 ppm [4]

CCn1c(C(F)(F)F)cc2nc(-c3nc(-c4ccc(F)c(F)c4)ccc3S(=O)(=O)CC)n(C)c2c1=O [Compound P34]
≥ 80%: percent effect (mortality or growth inhibition) at 200 ppm [2] | percent effect (mortality or growth inhibition) at 200 ppm [3] | percent control (mortality, anti-feedant effect or growth inhibition) at 200 ppm [4]

CCn1c(C(F)(F)F)cc2nc(-c3nc(-c4cc(F)c(F)c(F)c4)ccc3S(=O)(=O)CC)n(C)c2c1=O [Compound P35]
≥ 80%: percent effect (mortality or growth inhibition) at 200 ppm [1] | percent effect (mortality or growth inhibition) at 200 ppm [2] | percent effect (mortality or growth inhibition) at 200 ppm [3] | percent control (mortality, anti-feedant effect or growth inhibition) at 200 ppm [4]

CCn1c(C(F)(F)F)cc2nc(-c3nc(-c4cc(C(F)(F)F)cc(C(F)(F)F)c4)ccc3S(=O)(=O)CC)n(C)c2c1=O [Compound P36]
≥ 80%: percent effect (mortality or growth inhibition) at 200 ppm [2] | percent effect (mortality or growth inhibition) at 200 ppm [3] | percent control (mortality, anti-feedant effect or growth inhibition) at 200 ppm [4]

CCS(=O)(=O)c1ccc(-c2cc(F)cc(F)c2)nc1-c1nc2cc(C(F)(F)F)n(C3CC3)c(=O)c2n1C [Compound P41]
≥ 80%: percent effect (mortality or growth inhibition) at 200 ppm [2] | percent effect (mortality or growth inhibition) at 200 ppm [3] | percent effect (mortality, anti-feeding or growth inhibition) at 12.5 ppm [6] | percent control (mortality, anti-feedant effect or growth inhibition) at 200 ppm [4]
